Laboratory results from patent US20100184773A1, “Germline Polymorphisms in the Angiogenic Pathway Predict Tumor Recurrence in Cancer Therapy” (priority 2007, published 2010).

System: Stage III Colon Cancer
Assay: Time to tumor recurrence in patients with stage III colon cancer, by type of adjuvant therapy (retrospective, log-rank test)
Assay type: in vivo, human
Procedure: Methods and Patients: One hundred and twenty five patients with stage III colon cancer who were treated with 5-FU-based adjuvant chemotherapy at the University of Southern California/Norris Comprehensive Cancer Center (USC/NCCC) or the Los Angeles County/University of Southern California Medical Center (LAC/USCMC), between 1992 and 2007, were eligible for the present study. This study was conducted at the USC/NCCC and approved by the Institutional Review Board (IRB) of the University of Southern California for Medical Sciences. Patient data were collected retrospectively through chart review. Informed consent was signed by all patients involved in the study.
Statistical analysis: The primary endpoint in this study was time to tumor recurrence (TTR) in stage III colon cancer patients, which was defined as the time from the date of diagnosis of stage III colon cancer to the date of first recurrence, […], or until last contact if the patient was free of any tumor recurrence at the time of last contact. If a patient had not recurred, then TTR was censored at the time of death or at the last follow-up. The associations of time to tumor recurrence with patient's clinico-pathologic characteristics (age, sex, race, tumor grade, T-stage, N-stage and type of chemotherapy) were assessed using univariate survival analyses (log-rank test).
The association between each polymorphism and time to recurrence was examined using Kaplan-Meier curves and log-rank test. The distributions of polymorphisms across demographic characteristics were examined using Fisher's exact test. In the univariate survival analysis, the Pike estimate of relative risk (RR) and its associated 95% confidence interval (95% CI) was based on the log-rank test.

O=c1[nH]cc(F)c(=O)[nH]1 [5-FU, 5-Fluorouracil]
Median time to recurrence (TTR) (patients with stage III colon cancer, by adjuvant therapy, '+' = estimates were not reached): 3.9 yrs | Probability ± SE of 3-year recurrence (stage III colon cancer, by adjuvant therapy, Greenwood SE): 0.47 ± 0.06 | Relative risk (tumor recurrence, stage III colon cancer, reference = 5-FU group, Pike estimate based on log-rank test): 1
